Experiment [1] deals with GSK3β (Homo sapiens, UniProt P49841). The experiment is described as follows: GSK3β ATP depletion assay. Type of experiment: biochemical. The settings on record: read-out: GSK3b IC50. The protocol: GSK3β ATP Depletion Assay
The activity of GSK3β is measured using a luciferase-luciferin based ATP detection reagent to quantify ATP depletion resulting from kinase-catalyzed phosphoryl transfer to a peptide substrate. Compounds to be tested are dissolved in 100% DMSO and directly distributed into white 384-well plates at 0.5 μl per well. To start the reaction, 10 μl of 10 nM GSK3B kinase and 20 μM biotinylated CREB peptide ([…](pS)YR-NH2) in assay buffer (50 mM TRIS pH 7.5, 15 mM MgCl2, 1 mM DTT, 0.1% BSA) is added into each well. After 15 minutes, 10 μl of 2 μM ATP in assay buffer is added. Final assay concentrations are 5 nM GSK3B, […], 10 μM b-CREB peptide and 2.5% DMSO. The reaction is performed until approximately 50% of the ATP is depleted, then stopped with the addition of 20 μl KinaseGlo (Promega Corporation) solution. The stopped reaction is incubated for 10 minutes and the remaining ATP is detected via luminescence on the Victor2 (Perkin Elmer).

Experiment [2] addresses PIM1 (Homo sapiens, UniProt P11309). The experiment is described as follows: KinaseGlo Pim1 ATP depletion assay. It counts as biochemical. The protocol:
KinaseGlo Pim1 ATP Depletion Assay
The activity of PIM1 is measured using a luciferase-luciferin based ATP detection reagent to quantify ATP depletion resulting from kinase-catalyzed phosphoryl transfer to a peptide substrate. Compounds to be tested are dissolved in 100% DMSO and directly distributed into white 384-well plates at 0.5 μA per well. To start the reaction, 10 μA of 5 nM Pim1 kinase and 80 μM BAD peptide (RSRHSSYPAGT-OH) in assay buffer (50 mM HEPES pH 7.5, 5 mM MgCl2, 1 mM DTT, 0.05% BSA) is added into each well. After 15 minutes, 10 μl of 40 μM ATP in assay buffer is added. Final assay concentrations are 2.5 nM PIM1, 20 μM ATP, 40 μM BAD peptide and 2.5% DMSO. The reaction is performed until approximately 50% of the ATP is depleted, then stopped with the addition of 20 μA KinaseGlo Plus (Promega Corporation) solution. The stopped reaction is incubated for 10 minutes and the remaining ATP detected via luminescence on the Victor2 (Perkin Elmer). […] IC50, the half maximal inhibitory concentration, represents the concentration of a test compound that is required for 50% inhibition of its target in vitro.
(In general: Kinase-Glo measures the ATP left after a reaction by luminescence.)

The subject of experiment [3] is KMS11 (human myeloma cell line). The experiment is described as follows: Cell proliferation assay (CellTiter-Glo), KMS11. Type of experiment: cell-based. Conditions: Homo sapiens, KMS-11; KMS11-Luc cells. The protocol: KMS11 (human myeloma cell line), were cultured in IMDM supplemented with 10% FBS, sodium pyruvate and antibiotics. Cells were plated in the same medium at a density of 2000 cells per well into 96 well tissue culture plates, with outside wells vacant, on the day of assay. MMl.s (human myeloma cell line), were cultured in RPMI1640 supplemented with 10% FBS, sodium pyruvate and antibiotics. Cells were plated in the same medium at a density of 5000 cells per well into 96 well tissue culture plates, with outside wells vacant, on the day of assay.
Test compounds supplied in DMSO were diluted into DMSO at 500 times the desired final concentrations before dilution into culture media to 2 times final concentrations. Equal volumes of 2× compounds were added to the cells in 96 well plates and incubated at 37° C. for 3 days.
After 3 days plates were equilibrated to room temperature and equal volume of CellTiter-Glow Reagent (Promega) was added to the culture wells. The plates were agitated briefly and luminescent signal was measured with luminometer.
Using the procedures of Cell Proliferation Assay, the EC50 concentration of indicated compounds of the examples in were determined in KMS11 cells as shown in Table 4.
(ATP-based viability assays read luminescence as a measure of living cells.)

Experiment [4] has as its target PIM2 (Homo sapiens, UniProt Q9P1W9). Nature of the experiment: KinaseGlo Pim2 ATP depletion assay. It counts as biochemical. The protocol: KinaseGlo Pim2 ATP Depletion Assay
The activity of PIM2 is measured using a luciferase-luciferin based ATP detection reagent to quantify ATP depletion resulting from kinase-catalyzed phosphoryl transfer to a peptide substrate. Compounds to be tested are dissolved in 100% DMSO and directly distributed into white 384-well plates at 0.5 piper well. To start the reaction, 10 μl of 10 nM Pim2 kinase and 20 μM BAD peptide (RSRHSSYPAGT-OH) in assay buffer (50 mM HEPES pH 7.5, 5 mM MgCl2, 1 mM DTT, 0.05% BSA) is added into each well. After 15 minutes, 10 μl of 8 μM ATP in assay buffer is added. Final assay concentrations are 5 nM PIM2, 4 μM ATP, 10 μM BAD peptide and 2.5% DMSO. The reaction is performed until approximately 50% of the ATP is depleted, then stopped with the addition of 20 μl KinaseGlo Plus (Promega Corporation) solution. The stopped reaction is incubated for 10 minutes and the remaining ATP detected via luminescence on the Victor2 (Perkin Elmer).

The target in experiment [5] is PIM3 (Homo sapiens, UniProt Q86V86). Nature of the experiment: KinaseGlo Pim3 ATP depletion assay. Type of experiment: biochemical. The protocol:
KinaseGlo Pim3 ATP Depletion Assay
The activity of PIM3 is measured using a luciferase-luciferin based ATP detection reagent to quantify ATP depletion resulting from kinase-catalyzed phosphoryl transfer to a peptide substrate. Compounds to be tested are dissolved in 100% DMSO and directly distributed into white 384-well plates at 0.5 μl per well. To start the reaction, 10 μl of 10 nM Pim3 kinase and 200 μM BAD peptide (RSRHSSYPAGT-OH) in assay buffer (50 mM HEPES pH 7.5, 5 mM MgCl2, 1 mM DTT, 0.05% BSA) is added into each well. After 15 minutes, 10 μl of 80 μM ATP in assay buffer is added. Final assay concentrations are 5 nM […], 40 μM ATP, 100 μM BAD peptide and 2.5% DMSO. The reaction is performed until approximately 50% of the ATP is depleted, then stopped by the addition of 20 μl KinaseGlo Plus (Promega Corporation) solution. The stopped reaction is incubated for 10 minutes and the remaining ATP detected via luminescence on the Victor2 (Perkin Elmer).

The structures appear in SMILES notation.

As usually defined, the IC50 is the concentration needed to halve the response being measured. The term EC50 denotes the concentration giving half of the maximal effect. Lower therefore signals an effect from little substance.

Sequence of GSK3β (P49841 whole entry, species assumed): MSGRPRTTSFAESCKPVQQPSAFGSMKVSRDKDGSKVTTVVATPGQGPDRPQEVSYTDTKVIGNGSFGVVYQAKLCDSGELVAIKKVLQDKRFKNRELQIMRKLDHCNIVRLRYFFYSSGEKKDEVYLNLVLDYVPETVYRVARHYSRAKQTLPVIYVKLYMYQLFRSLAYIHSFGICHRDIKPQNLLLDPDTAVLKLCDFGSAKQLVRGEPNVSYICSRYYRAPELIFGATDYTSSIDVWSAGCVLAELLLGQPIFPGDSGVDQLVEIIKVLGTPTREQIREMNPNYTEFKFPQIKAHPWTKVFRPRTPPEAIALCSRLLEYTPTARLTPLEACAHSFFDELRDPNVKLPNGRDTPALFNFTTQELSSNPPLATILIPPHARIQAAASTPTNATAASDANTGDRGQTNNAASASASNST
Sequence of PIM2 (Q9P1W9 whole entry): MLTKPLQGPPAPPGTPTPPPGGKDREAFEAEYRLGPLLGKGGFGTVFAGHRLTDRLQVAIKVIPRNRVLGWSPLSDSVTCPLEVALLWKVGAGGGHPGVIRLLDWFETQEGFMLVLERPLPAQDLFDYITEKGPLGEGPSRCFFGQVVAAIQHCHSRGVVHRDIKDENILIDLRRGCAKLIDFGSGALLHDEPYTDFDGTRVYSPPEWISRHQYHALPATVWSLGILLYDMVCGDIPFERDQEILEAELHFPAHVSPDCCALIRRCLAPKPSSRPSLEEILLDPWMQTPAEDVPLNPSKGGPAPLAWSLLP
Sequence of PIM1 (P11309 whole entry): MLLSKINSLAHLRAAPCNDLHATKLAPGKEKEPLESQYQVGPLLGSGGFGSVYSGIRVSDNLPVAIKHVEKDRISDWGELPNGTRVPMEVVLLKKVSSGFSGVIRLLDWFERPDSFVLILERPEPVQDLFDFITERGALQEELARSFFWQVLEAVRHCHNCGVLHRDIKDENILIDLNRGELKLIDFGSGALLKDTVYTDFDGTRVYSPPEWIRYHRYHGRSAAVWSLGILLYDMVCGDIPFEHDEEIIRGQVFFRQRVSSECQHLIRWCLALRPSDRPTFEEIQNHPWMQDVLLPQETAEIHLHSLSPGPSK

For the molecule `CC1C(c2ccncc2NC(=O)c2ccc(F)c(-c3c(F)cccc3F)n2)OC(C)[C@H](O)C1O` (stereo in doubt) [Example 66, 6-(2,6-difluorophenyl)-N-(4-((2S,3R,4S,5R,6S)-4,5-dihydroxy-3,6-dimethyltetrahydro-2H-pyran-2-yl)pyridin-3-yl)-5-fluoropicolinamide], the IC50 in experiment [1] was 689 nM; in experiment [2], 1 nM; in experiment [4] it was 99 nM; in experiment [5] it was 8 nM. The EC50 in experiment [3] came to 2200 nM.
`CC1C(c2ccncc2NC(=O)c2ccc(F)c(-c3c(F)cccc3F)n2)OC(C)[C@@H](O)C1O` (stereo in doubt) [Example 67, 6-(2,6-difluorophenyl)-N-(4-((2R,3S,4R,5S,6R)-4,5-dihydroxy-3,6-dimethyltetrahydro-2H-pyran-2-yl)pyridin-3-yl)-5-fluoropicolinamide]: the IC50 in experiment [1] was 984 nM; in experiment [2], 4 nM; in experiment [4] it was 300 nM; in experiment [5] it was 22 nM. The EC50 in experiment [3] is above 10000 nM.
`C[C@H]1O[C@@H](c2ccncc2NC(=O)c2csc(-c3c(F)cccc3F)n2)[C@H](F)[C@@H](O)[C@]1(C)O` (stereo in doubt) [Example 68, 2-(2,6-difluorophenyl)-N-(4-((2S,3R,4S,5S,6R)-3-fluoro-4,5-dihydroxy-5,6-dimethyltetrahydro-2H-pyran-2-yl)pyridin-3-yl)thiazole-4-carboxamide]: the IC50 in experiment [1] was 1070 nM; in experiment [2], 6 nM; in experiment [4], 3390 nM; in experiment [5], 89 nM. In experiment [3], this molecule had an EC50 of 6000 nM.
On to `C[C@H]1O[C@@H](c2ccncc2NC(=O)c2ccc(F)c(-c3c(F)cccc3F)n2)[C@H](F)[C@@H](O)[C@]1(C)O` (stereo in doubt) [Example 69, 6-(2,6-difluorophenyl)-5-fluoro-N-(4-((2S,3R,4S,5S,6R)-3-fluoro-4,5-dihydroxy-5,6-dimethyltetrahydro-2H-pyran-2-yl)pyridin-3-yl)picolinamide], for which the IC50 worked out at 1800 nM in experiment [1], 4 nM in experiment [2], 497 nM in experiment [4] and 53 nM in experiment [5]. Moreover, the 50% effective concentration (EC50) in experiment [3] is 4000 nM.
Consider `C[C@@H]1O[C@H](c2ccncc2NC(=O)c2csc(-c3c(F)cccc3F)n2)[C@@H](F)[C@H](O)[C@@]1(C)O` (stereo in doubt) [Example 70, 2-(2,6-difluorophenyl)-N-(4-((2R,3S,4R,5R,6S)-3-fluoro-4,5-dihydroxy-5,6-dimethyltetrahydro-2H-pyran-2-yl)pyridin-3-yl)thiazole-4-carboxamide], for which the 50% inhibitory concentration (IC50) was 331 nM in experiment [1], 1 nM in experiment [2], 323 nM in experiment [4] and 19 nM in experiment [5]. This molecule yielded an EC50 in experiment [3] above 10000 nM.
Take `CC[C@]1(O)[C@H](O)C[C@H](c2ccncc2NC(=O)c2ccc(F)c(-c3c(F)cccc3F)n2)O[C@@H]1C` (stereo in doubt) [Example 77, 6-(2,6-difluorophenyl)-N-(4-((2R,4R,5S,6R)-5-ethyl-4,5-dihydroxy-6-methyltetrahydro-2H-pyran-2-yl)pyridin-3-yl)-5-fluoropicolinamide]: the half-maximal inhibitory concentration (IC50) was found to be 4890 nM in experiment [1], 50 nM in experiment [2], 756 nM in experiment [4] and 236 nM in experiment [5]. Moreover, in experiment [3], the concentration for a half-maximal effect (EC50) amounted to 6400 nM.
On the same counts, the results for `C[C@H]1O[C@@H](c2ccncc2NC(=O)c2ccc(F)c(-c3c(F)cccc3F)n2)[C@H](O)[C@@H](O)[C@]1(C)O` (stereo in doubt) [Example 81, 6-(2,6-difluorophenyl)-5-fluoro-N-(4-((2S,3R,4R,5S,6R)-3,4,5-trihydroxy-5,6-dimethyltetrahydro-2H-pyran-2-yl)pyridin-3-yl)picolinamide] are 854 nM, 31 nM, 720 nM, 44 nM and above 10000 nM.
Take `C[C@@H]1O[C@H](c2ccncc2NC(=O)c2ccc(F)c(-c3c(F)cccc3F)n2)[C@@H](O)[C@H](O)[C@@]1(C)O` (stereo in doubt) [Example 82, 6-(2,6-difluorophenyl)-5-fluoro-N-(4-((2R,3S,4S,5R,6S)-3,4,5-trihydroxy-5,6-dimethyltetrahydro-2H-pyran-2-yl)pyridin-3-yl)picolinamide]: the IC50 worked out at 1170 nM in experiment [1], 2 nM in experiment [2], 36 nM in experiment [4] and 7 nM in experiment [5]. Moreover, the EC50 in experiment [3] is above 10000 nM.
On the same counts, the results for `C[C@H]1[C@H](C)O[C@H](c2ccncc2NC(=O)c2csc(-c3c(F)cccc3F)n2)C[C@@H]1O` (stereo in doubt) [Example 94, 2-(2,6-difluorophenyl)-N-(4-((2S,4S,5R,6S)-4-hydroxy-5,6-dimethyltetrahydro-2H-pyran-2-yl)pyridin-3-yl)thiazole-4-carboxamide] are 11 nM, 1 nM, 246 nM, 9 nM and 4200 nM.
Take `C[C@H]1[C@H](O)C[C@H](c2ccncc2NC(=O)c2csc(-c3c(F)cccc3F)n2)O[C@@H]1C` (stereo in doubt) [Example 95, 2-(2,6-difluorophenyl)-N-(4-((2R,4R,5S,6R)-4-hydroxy-5,6-dimethyltetrahydro-2H-pyran-2-yl)pyridin-3-yl)thiazole-4-carboxamide]: the IC50 in experiment [1] was 32 nM; in experiment [2], 8 nM; in experiment [4], 2170 nM; in experiment [5], 80 nM. This molecule also had an EC50 in experiment [3] above 10000 nM.
Take `O=C(Nc1cnccc1[C@H]1C[C@@H](O)[C@H](O)[C@@H](CF)O1)c1ccc(F)c(-c2c(F)cccc2F)n1` [Example 282, 6-(2,6-difluorophenyl)-5-fluoro-N-(4-((2R,4R,5S,6S)-6-(fluoromethyl)-4,5-dihydroxytetrahydro-2H-pyran-2-yl)pyridin-3-yl)picolinamide]: the half-inhibitory concentration (IC50) is 187 nM in experiment [1], 1 nM in experiment [2], 10 nM in experiment [4] and 4 nM in experiment [5].

(Values after patent US20130109682A1, “CYCLIC ETHER COMPOUNDS USEFUL AS KINASE INHIBITORS” (NOVARTIS AG, priority 2010, published 2013).)
